Assay results taken from PMC7187413 (Journal of medicinal chemistry, 2020).
“Also recorded” adds a separate entry of the source. Blank lines part the entries; values can stand above or below the molecule they belong to.

How the values were obtained:
[1] = biological target: WDR5 (Homo sapiens, UniProt P61964); assay: Competition fluorescence polarization-based assay
[2] = biological target: WDR5-MYC complex (Homo sapiens, UniProt P61964); assay: Co-IP target engagement in whole; format: cell-based; settings: transformed HEK293 cells, 5 μM compound, 24 h
[3] = biological target: MLL-1 in the full WDR5, RBBP5, ASH2L, and DPY30 (WRAD) complex (Homo sapiens, UniProt P61964); assay: Biochemical histone methyltransferase assay; settings: Supplemental Table 4
[4] = tested on: MYC bound to chromatin; assay: ChIP-qPCR of MYC binding to target genes in c-MYC-HA overexpressing HEK293 cells; format: cell-based, human; settings: 20 μM, 10 h
[5] = tested on: WDR5 binding to chromatin; assay: ChIP of WDR5 binding to chromatin at MYC target genes in HEK293 cells; format: cell-based, human; settings: cells treated with 12 versus N.C.

Molecule: 5-Bromo-3-chloro-N-(1-cyclopentyl-2-(4-(pyrrolidin-3-yl)piperidine-1-carbonyl)-1H-imidazol-4-yl)-2-hydroxybenzenesulfonamide [Compound 9]
Kd ([1]; read-out: FPA Kd, competition with FITC-labeled small molecule, average of at least 3 independent replicates ± standard deviation): 5 ± 1 µM

WDR5-MYC complex formation in whole cells relative to DMSO [2]: decreased complex formation
fold improvement in the binding affinity compared to 2a ([1]; FPA Kd relative to 2a): 2.5 fold
Molecule: O=S(=O)(Nc1cn(C2CCCC2)cn1)c1cc(Br)cc(Cl)c1O [Compound 2i, 5-Bromo-3-chloro-N-(1-cyclopentyl-1H-imidazol-4-yl)-2-hydroxybenzenesulfonamide]

inhibition of histone methyltransferase activity of MLL-1 [3]: inhibited
Molecule: O=S(=O)(Nc1cnn(C2CCCC2)c1)c1cc(Br)cc(Cl)c1O [Compound 3d, 5-Bromo-3-chloro-N-(1-cyclopentyl-1H-pyrazol-4-yl)-2-hydroxybenzenesulfonamide]

inhibition of histone methyltransferase activity of MLL-1 [3]: inhibited
Molecule: CCOC(=O)c1nc(NS(=O)(=O)c2cc(Br)cc(Cl)c2O)cn1C1CCCC1 [Compound 6, Ethyl 4-((5-bromo-3-chloro-2-hydroxyphenyl)sulfonamido)-1-cyclopentyl-1H-imidazole-2-carboxylate]

inhibition of histone methyltransferase activity of MLL-1 [3]: inhibited
Molecule: CNC(=O)c1nc(NS(=O)(=O)c2cc(Br)cc(Cl)c2O)cn1C1CCCC1 [Compound 8, 4-((5-Bromo-3-chloro-2-hydroxyphenyl)sulfonamido)-1-cyclopentyl-N-methyl-1H-imidazole-2-carboxamide]

inhibition of histone methyltransferase activity of MLL-1 [3]: inhibited
Molecule: CS(=O)(=O)c1nc(NS(=O)(=O)c2cc(Br)cc(Cl)c2O)cn1C1CCCC1 [Compound 12]
amount of MYC at loci where MYC recruitment is dependent on WDR5 ([4]; C7orf40, RNPS1, RPS14, RPL5): reduction in the amount of MYC; also recorded: reduce the amount of MYC bound to chromatin
amount of MYC at sites where MYC binding is independent of WDR5 ([4]; ZFPM1 and ZNF771): remained nearly unaffected; also recorded: did not affect binding of MYC
WDR5 binding to chromatin at MYC target loci [5]: comparable levels
